Measured values as given in patent US4536397A, “Antibiotics, neoviridogriseins, and their method of production” (Sanraku-Ocean Co., Ltd., priority 1983, dated 1985).
In brackets after ≈: the same amount, converted by molar mass. Starred links: 1 amine or outer side, 2 acyl side, 3 side chain; linkers in the order of their positions; H or OH if unused. Positions of bridges follow the written chain, without caps; N, C: chain ends. Non-standard residues stand in square brackets, D forms with d. Residues, ends and D or L forms follow the SMILES beside them. *: point of attachment. X2 = CC(C)[C@H](C)[C@@H](C(=O)[*:2])N(C)[*:1]; d(cisHyp) = O=C(O)[C@H]1C[C@@H](O)CN1; X1 = CC(C)C(C)C(C(=O)[*:2])N(C)[*:1]; Picolinoyl(3-OH) = O=C(c1ncccc1O)*; NMePhg = CN[CH](C(=O)O)c1ccccc1; Hyp = O=C(O)[CH]1C[CH](O)CN1; Abu = CC[CH](N)C(=O)O; Sar = CNCC(=O)O

How the values were obtained:
[1] = system: Mycoplasma agalactiae PG 2; assay: MIC, dilution method, Mycoplasma; type: cell-based; details: Table 4; PPLO broth (Chanock's medium; Difco)
Procedure: (§1) The MIC were determined by the dilution method.
(§2) (2): PPLO broth (Chanock's medium; Difco)
(§3) was tested in vitro agains several Mycoplasma strains.

[2] = system: Mycoplasma pulmonis PG 22; assay: MIC, dilution method, Mycoplasma; type: cell-based; details: Table 4; PPLO broth (Chanock's medium; Difco)
Procedure: as §1, §2, §3

Mycoplasma fermentans = assay: MIC, dilution method, Mycoplasma; type: cell-based; details: Table 4; PPLO broth (Chanock's medium; Difco)
Procedure: as §1, §2, §3

[3] = system: Mycoplasma gallisepticum KP13; assay: MIC, dilution method, Mycoplasma; type: cell-based; design: unit not given beside the values; details: Table 4; PPLO enrichment broth (Eiken)
Procedure: as §1
Medium (1): PPLO enrichment broth (Eiken, Japan)
as §3

Sarcina lutea = assay: MIC, tube dilution method (incl. synergism with griseoviridin); type: cell-based
Streptococcus pyogenes = assay: MIC, tube dilution method; type: cell-based; details: BHI broth containing 10% horse blood
Pseudeomonas aeruginosa = assay: MIC, tube dilution method; type: cell-based; details: BHI broth
Staphylococcus aureus [4] = assay: MIC, tube dilution method; type: cell-based; details: BHI broth
[5] = system: Diplococcus pneumoniac type 1; assay: MIC, tube dilution method; type: cell-based, Diplococcus pneumoniae; details: BHI broth containing 10% horse blood
Escherichia coli = assay: MIC, tube dilution method; type: cell-based; details: BHI broth
Staphylococcus sp. = assay: MIC, tube dilution method; type: cell-based; details: BHI broth
Candida albicans = assay: MIC, tube dilution method; type: cell-based; details: malt extract-yeast extract medium
Proteus vulgaris = assay: MIC, tube dilution method; type: cell-based; details: BHI broth
Solubility in solvents = type: physicochemical; details: for solubility in organic solvents: methanol, ethanol, propanols, n-butanol, dioxane, acetates, ketones, benzene, toluene, chlorinated solvents, DMF, DMSO
[6] = system: Bacillus subtilis ATCC 6633; assay: MIC, tube dilution method; type: cell-based; details: BHI broth
Salmonella gallinanum = assay: MIC, tube dilution method; type: cell-based; details: BHI broth
Staphylococcus aureus [7] = assay: MIC repeated with a far lower dilution rate; type: cell-based; details: far lower dilution rate, brain heart infusion broth
Source text: This MIC experiment was based on the two-fold dilutions. To differentiate neoviridogrisein II and viridogrisein in their antibiotic activity, the MIC determination was repeated with a far lower dilution rate.
Medium: brain heart infusion broth

Row | Structure (SMILES) | MIC [1] | MIC [2] | MIC (Mycoplasma fermentans) | MIC [3] | MIC (Streptococcus pyogenes) | MIC (Pseudeomonas aeruginosa) | MIC (Staphylococcus aureus [4]; strain 209P) | MIC (Staphylococcus aureus [4]; strain (BX-1633)(PC)r) | MIC (Staphylococcus aureus [4]; strain (EM)r) | MIC (Staphylococcus aureus [4]; strain (EM, CM, SM, PC, TC)r) | MIC (Staphylococcus aureus [4]; strain (EM, OM)r) | MIC (Staphylococcus aureus [4]; strain (PC, EM, NM)r) | MIC (Staphylococcus aureus [4]; strain (PC, TC, EM, LM)r 1) | MIC (Staphylococcus aureus [4]; strain (PC, TC, EM, LM)r 2) | MIC (Staphylococcus aureus [4]; strain (SM, STH)r) | MIC (Staphylococcus aureus [4]; strain (STH)r) | MIC (Staphylococcus aureus [4]; strain (TC, CP, PC)r) | MIC (Staphylococcus aureus [4]; strain (TC, EM, LM, CP)r) | MIC (Staphylococcus aureus [4]; strain Russell(PC)r) | MIC (Staphylococcus aureus [4]; strain Smith) | further results
1 | C[C@@H]1C/C=C2\SC[C@@H](NC(=O)c3coc(n3)C[C@H](O)C[C@H](O)/C=C/C=C/CNC2=O)C(=O)O1 [GV, griseoviridin] | 3.13 | 6.25 | < 0.05 | 0.10 |  |  |  |  |  |  |  |  |  |  |  |  |  |  |  |  | MIC (Sarcina lutea; Table 3, varied ratios of neoviridogriseins mixture to griseoviridin, tube dilution, brain heart infusion broth): 0.250 µg/mL
2 | CCC1NC(=O)C(C(C)C(C)C)N(C)C(=O)CN(C)C(=O)C2CC(O)CN2C(=O)C(CC(C)C)NC(=O)C(NC(=O)c2ncccc2O)C(C)OC(=O)C(c2ccccc2)N(C)C1=O (centres unmarked) [NV III, neoviridogrisein III] ({Picolinoyl(3-OH)}-TL[Hyp][Sar][X1][Abu][NMePhg]; ester 1-C; configuration not given here) |  |  |  |  | 0.4 µg/mL (≈ 0.448 µM) | > 25 µg/mL | 0.2 µg/mL (≈ 0.224 µM) | 0.4 µg/mL (≈ 0.448 µM) | 0.4 µg/mL (≈ 0.448 µM) | 0.4 µg/mL (≈ 0.448 µM) | 0.8 µg/mL (≈ 0.896 µM) | 0.4 µg/mL (≈ 0.448 µM) | 6.25 µg/mL (≈ 7 µM) | 6.25 µg/mL (≈ 7 µM) | 0.2 µg/mL (≈ 0.224 µM) | 1.6 µg/mL (≈ 1.79 µM) | 0.4 µg/mL (≈ 0.448 µM) | 6.25 µg/mL (≈ 7 µM) | 0.4 µg/mL (≈ 0.448 µM) | 0.2 µg/mL (≈ 0.224 µM) | MIC [5]: 0.2 µg/mL (≈ 0.224 µM); MIC (Escherichia coli): > 25 µg/mL; MIC (Sarcina lutea; Table 1, BHI broth): 0.4 µg/mL; MIC (Staphylococcus sp.; Staphylococcus sp. (PC)r): 0.8 µg/mL (≈ 0.896 µM); MIC (Staphylococcus sp.; Staphylococcus sp.): 0.8 µg/mL (≈ 0.896 µM); MIC (Candida albicans): > 25 µg/mL; MIC (Proteus vulgaris): > 25 µg/mL; solubility in organic solvents (Solubility in solvents): soluble; solubility in petroleum ether and hexane (Solubility in solvents): practically insoluble; solubility in water and ethyl ether (Solubility in solvents): hardly soluble; MIC [6]: 0.8 µg/mL (≈ 0.896 µM); MIC (Salmonella gallinanum): > 25 µg/mL
3 | CC(C)C[C@H]1NC(=O)[C@@H](NC(=O)c2ncccc2O)[C@@H](C)OC(=O)[C@H](c2ccccc2)N(C)C(=O)[C@H](C)NC(=O)[C@H]([C@@H](C)C(C)C)N(C)C(=O)CN(C)C(=O)[C@H]2C[C@@H](O)CN2C1=O [VG, viridogrisein] ({Picolinoyl(3-OH)}-T[dL][d(cisHyp)][Sar][X2]A[NMePhg]; ester 1-C) | 0.78 | 1.56 | < 0.05 | 0.10 | 0.4 µg/mL (≈ 0.455 µM) | > 25 µg/mL | 0.2 µg/mL (≈ 0.228 µM) | 0.4 µg/mL (≈ 0.455 µM) | 0.4 µg/mL (≈ 0.455 µM) | 0.4 µg/mL (≈ 0.455 µM) | 0.8 µg/mL (≈ 0.91 µM) | 0.8 µg/mL (≈ 0.91 µM) | 6.25 µg/mL (≈ 7.11 µM) | 6.25 µg/mL (≈ 7.11 µM) | 0.4 µg/mL (≈ 0.455 µM) | 1.6 µg/mL (≈ 1.82 µM) | 0.4 µg/mL (≈ 0.455 µM) | 6.25 µg/mL (≈ 7.11 µM) | 0.4 µg/mL (≈ 0.455 µM) | 0.4 µg/mL (≈ 0.455 µM) | MIC [5]: 0.4 µg/mL (≈ 0.455 µM); MIC (Escherichia coli): > 25 µg/mL; MIC (Sarcina lutea; Table 1, BHI broth): 0.2 µg/mL; MIC (Staphylococcus sp.; Staphylococcus sp. (PC)r): 0.4 µg/mL (≈ 0.455 µM); MIC (Staphylococcus sp.; Staphylococcus sp.): 0.8 µg/mL (≈ 0.91 µM); MIC (Candida albicans): > 25 µg/mL; MIC (Staphylococcus aureus [7]; strain 209 P): 0.133 µg/mL (≈ 0.151 µM); MIC (Staphylococcus aureus [7]; strain (EM, CM, SM, PC, TC)r): 0.334 µg/mL (≈ 0.38 µM); MIC (Staphylococcus aureus [7]; strain (TC, CP, PC)r): 0.334 µg/mL (≈ 0.38 µM); MIC (Staphylococcus aureus [7]; strain Bx-1633(PC)r): 0.267 µg/mL (≈ 0.304 µM); MIC (Staphylococcus aureus [7]; strain Russell(PC)r): 0.267 µg/mL (≈ 0.304 µM); MIC (Staphylococcus aureus [7]; strain Smith): 0.267 µg/mL (≈ 0.304 µM); MIC (Proteus vulgaris): > 25 µg/mL; solubility in organic solvents (Solubility in solvents): soluble; solubility in petroleum ether and hexane (Solubility in solvents): practically insoluble; solubility in water and ethyl ether (Solubility in solvents): hardly soluble; MIC [6]: 0.8 µg/mL (≈ 0.91 µM); MIC (Salmonella gallinanum): > 25 µg/mL
